The values that follow come from patent publication US9120789B2, “1-(5-tert-butyl-2-phenyl-2H-pyrazol-3-yl)-3-[2-fluoro-4-(1-methyl-2-oxo-2,3-dihydro-1H-imidazo[4,5-b]pyridin-7-yloxy)-phenyl]-urea and related compounds and their use in therapy” (CANCER RESEARCH TECHNOLOGY LIMITED, priority 2010, dated 2015).

The test system of assay [1] is WM266.4 melanoma cell line (mutant BRAF). Kind of assay: Assay C - SRB cell proliferation assay, WM266.4. The class given is cell-based. The settings on record: Homo sapiens, WM 266-4, 120 h; WM266.4, 5 days growth. The procedure:
(§1) Values for the blank (no cells) are subtracted from all values. The DMSO controls are set as 100% activity and assay points (the response) are calculated as a percentage of the DMSO control. Data are plotted using Graphpad Prism software and a non-linear regression line is calculated using a variable slope sigmoidal dose-response equation: Y=Bottom+[Top−Bottom]/[1+10^((Log EC50−X)*HillSlope)] where X is the logarithm of concentration and Y is the response). The IC50 generated by this procedure is the concentration of the drug that produces a percentage control fluorescence value midway between the saturation, and zero-effect plateaus. Three independent assays are usually performed and the mean IC50 is reported. Biological Methods—Assay C—SRB Cell Proliferation Assay (SRB GI50)
Cell lines (e.g., WM266.4 and A375M melanoma cell lines; SW620 colorectal carcinoma cell line) are routinely cultured in DMEM or RPMI1640 supplemented with 10% foetal bovine serum, at 37° C., in 10% CO2 water saturated atmosphere. Cultures are maintained in exponential growth phase by sub-culturing before having become confluent (3-5 day intervals). Single cell suspensions are prepared by harvesting an 80 cm^2 tissue culture flask with 5 mL commercial trypsin EDTA. After 5 minutes, the detached cells are mixed with 5 mL fully complemented culture medium and centrifugally pelleted (1000 rpm for 7 minutes). After aspirating the supernatant, the cell pellet is re-suspended in 10 mL fresh medium and the cells fully disaggregated by drawing the whole volume up/down 5 times through a 19-gauge needle. The concentration of the cells is determined using a haemocytometer ( 1/10 dilution). A suitable volume to give at least a 2-fold excess for the number of tests being conducted, typically 100-200 mL, is prepared by diluting the cell suspension to 10,000-40,000/mL, and 100 μL/well dispensed into 96 well plates using a programmable 8-channel peristaltic pump, giving 1000-4000 cells/well, leaving column 12 blank. The plates are returned to the incubator for 24 hours to allow the cells to re-attach.
The compounds being tested are prepared at 10 mM in DMSO. Aliquots (24 μL) are diluted into 1.2 mL culture medium giving 200 μM, and 10 serial dilutions of 3× performed by transferring 80 μL to 160 μL. Aliquots (100 μL) of each dilution are added to the wells, using an 8-channel pipettor, thus performing a final further 2× dilution, and giving doses ranging from 100 μM to 0.005 μM. Column 11 receives plain culture medium only. Each compound is tested in quadruplicate, each replicate being the average of four wells.
After a further 5 days growth, the plates are emptied, and the cells are fixed in 10% trichloroacteic acid for 30 minutes at 4° C. After thorough rinsing in running tap water, the plates are dried, and stained by adding 50 μL of a solution of 0.1% sulphorhodamine-B in 1% acetic acid, for 10 minutes at room temperature. The stain is poured out and the plates thoroughly rinsed under a stream of 1% acetic acid, thus removing unbound stain, and dried. The bound stain is taken into solution by addition of 100 μL Tris buffer pH 8, followed by 10 minutes on a plate-shaker (approximately 500 rpm). The absorbance at 540 nm in each well (being proportional to the number of cells present) is determined using a plate reader.
After averaging the blank values in column 12 this was subtracted from all values, and results expressed as a percentage of the untreated value (column 11). […] The GI50 generated by this procedure is the concentration of the drug that produces a percentage control A540 midway between the saturation, and zero-effect plateaus.

The target of assay [2] is B-RAF (Homo sapiens, UniProt P15056). The experiment in a line: Assay A - DELFIA kinase assay. The class given is biochemical. The settings on record: 100 μM ATP; mean of usually three assays; read-out: Assay A BRAF IC50. The procedure:
Biological Methods—Assay A—DELFIA Kinase Assay
Compounds were assessed by a kinase assay performed according to the following protocol.
The following reagents were prepared:
DELFIA Kinase Buffer (DKB):
DKB1 (DKB with B-RAF and MEK Protein):
Combine 4950 μL of DKB and 50 μL of 2.5 mg/mL GST-MEK stock (to give 1 mg of MEK per 40 μL). Then add 22.5 μL of B-RAF to give ˜0.2 μL of B-RAF per 40 μL.
DKB2 (DKB with MEK Protein):
Combine 4950 μL of DKB and 50 μL of 2.5 mg/mL GST-MEK stock (to give […] of MEK per 40 μL). Use 500 μL of this for the blow out (BO) and the empty vector (EV) control.
100 mM stock, dilute to 500 μM to give 100 μM final concentration in assay.
Inhibitors (Test Compounds):
Phospho-MEK1/2 CST #9121S diluted 1:1000 in DELFIA assay buffer (AB). Pre-incubate antibody in the AB for 30 minutes at room temperature prior to use.
Anti-rabbit-Eur labelled secondary Perkin Elmer #AD0105 diluted 1:1000 in DELFIA assay buffer (AB). Pre-incubate antibody in the AB for 30 minutes at room temperature prior to use. (Primary and secondary antibodies were incubated together.)
DELFIA assay buffer Perkin Elmer #4002-0010.
DELFIA enhancement solution Perkin Elmer #4001-0010.
96 well glutathione-coated black plate Perbio #15340.
1. Preblock wells with 5% milk in TBS for 1 hour.
2. Wash wells 3× with 200 μL TBS.
3. Plate out 40 μL of DKB1 for all inhibitors (test compounds), DMSO control, and optionally other control compounds.
4. Plate out 40 μL of DKB2 for BO and EV wells.
5. Add inhibitors (test compounds) at 0.5 μL per well according to desired plate layout.
6. Add 0.5 μL DMSO to vehicle control wells.
7. Add 2 μL of B-RAF to BO and EV wells.
8. Pre-incubate with inhibitors (test compounds) for 10 minutes at room temperature with shaking.
9. Add 10 μL of 500 μM ATP stock, in DKB, to give 100 μM assay concentration.
10. Seal plates with TopSeal and incubate at room temperature with shaking for 45 minutes.
11. Wash plates 3× with 200 μL 0.1% Tween20/Water to terminate reaction.
12. Add 50 μL per well of antibody mix and incubate for 1 hour at room temperature with shaking.
13. Wash plates 3× with 200 μL 0.1% Tween20/Water.
14. Add 100 μL DELFIA enhancement solution per well, cover in foil, and incubate at room temperature for 30 minutes with shaking.
15. Read on Victor using Europium protocol.
as §1, with “(Empty Vector)” for “(no cells)”, “response.” for “response).”, “B—Cell Based Phosho-ERK” for “C—SRB Cell Proliferation”, “Assay” for “Assay (SRB GI50)”

Assay [3] deals with pERK in mutant BRAF WM266.4 cells. The experiment in a line: Assay B - cell based phospho-ERK assay. The settings on record: Homo sapiens, WM 266-4, 6 hours incubation. How it is done: as §1, with “(Empty Vector)” for “(no cells)”, “response.” for “response).”, “B—Cell Based Phosho-ERK” for “C—SRB Cell Proliferation”, “Assay” for “Assay (SRB GI50)”
Compounds were assessed using a cell-based assay which was performed according to the following protocol.
Plate out 16,000 mutant BRAF WM266.4 cells/well in 99 μL medium in a 96-well plate.
1. Add 1 μL inhibitor (test compound) to the cells (total […]).
2. Incubate the cells with test compound for 6 hours at 37° C.
3. Aspirate off the solution from all of the wells.
4. Fixate the cells with 100 μL 4% formaldehyde/0.25% Triton X-100 PBS per well.
5. Incubate the plate for 1 hour at 4° C.
6. Aspirate off the fixing solution and add 300 μL TBS per well.
7. Leave the plate overnight at 4° C.
1. Wash the plate 2× with 200 μL PBS per well.
2. Block with 100 μL 5% dried milk in TBS.
3. Incubate the plate for 20 minutes at 37° C.
4. Wash the plate 2× with 0.1% tween/H2O.
5. Add 50 μL of 3 μg/mL primary antibody pERK (Sigma M8159), diluted in 5% milk powder/TBS, to each well.
6. Incubate the plate for 2 hours at 37° C.
7. Wash the plate 3× with 0.1% tween/H2O.
8. Add 50 μL of 0.45 μg/mL secondary Europium-labelled anti-mouse antibody (Perkin Elmer) to each well.
9. Incubate the plate for 1 hour at 37° C.
10. Wash the plate 3× with 0.1% tween/H2O.
11. Add 100 μL enhancement solution (Perkin Elmer) to each well.
12. Leave the plate for approximately 10 minutes at room temperature before gently shaking the plate.
13. Read Europium Time Resolved Fluorescence in Victor2.
14. Wash the plate 2× with 0.1% tween/H2O.
15. Measure the protein concentration with BCA (Sigma) by adding 200 μL of solution per well.
16. Incubate the plate for 30 minutes at 37° C.
17. Read absorbance levels at 570 nm in a plate reader.
Note that Europium counts are normalised for protein levels by dividing counts by absorbance.
as §1

B-RAF, sequence (P15056 whole entry): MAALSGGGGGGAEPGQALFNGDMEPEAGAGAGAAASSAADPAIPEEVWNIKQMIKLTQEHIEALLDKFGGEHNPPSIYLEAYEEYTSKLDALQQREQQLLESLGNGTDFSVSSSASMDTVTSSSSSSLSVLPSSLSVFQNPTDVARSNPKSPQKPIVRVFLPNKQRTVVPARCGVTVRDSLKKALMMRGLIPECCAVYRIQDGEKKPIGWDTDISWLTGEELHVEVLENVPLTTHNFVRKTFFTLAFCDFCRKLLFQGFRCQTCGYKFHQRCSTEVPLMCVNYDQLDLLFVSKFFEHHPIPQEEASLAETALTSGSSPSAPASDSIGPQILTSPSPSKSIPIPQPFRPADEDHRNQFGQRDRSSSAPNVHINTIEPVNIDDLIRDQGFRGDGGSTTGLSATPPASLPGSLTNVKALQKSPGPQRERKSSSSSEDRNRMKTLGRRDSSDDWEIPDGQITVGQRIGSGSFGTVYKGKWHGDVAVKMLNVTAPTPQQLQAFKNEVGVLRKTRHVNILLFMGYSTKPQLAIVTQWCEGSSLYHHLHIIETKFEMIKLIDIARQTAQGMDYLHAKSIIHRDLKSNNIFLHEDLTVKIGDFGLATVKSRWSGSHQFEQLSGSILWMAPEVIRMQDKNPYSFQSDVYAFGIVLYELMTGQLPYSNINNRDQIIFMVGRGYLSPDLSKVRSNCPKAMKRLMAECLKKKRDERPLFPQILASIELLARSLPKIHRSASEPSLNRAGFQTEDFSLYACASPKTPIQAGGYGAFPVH

Take `Cc1ccc(-n2nc(C(C)(C)C)cc2NC(=O)Nc2ccc(Oc3ccnc4[nH]c(=O)n(C)c34)cc2F)cc1` [AA-02, 1-(3-Tert-butyl-1-p-tolyl-1H-pyrazol-5-yl)-3-(2-fluoro-4-(1-N-methyl-2-oxo-2,3-dihydro-1H-imidazo[4,5-b]pyridin-7-yloxy)phenyl)urea]: in assay [1], the GI50 is 57 nM. For the same compound, the IC50 in assay [2] was 197 nM; in assay [3], 20 nM.

In assay [1], `Cn1c(=O)[nH]c2nccc(Oc3ccc(NC(=O)Nc4cc(C(C)(C)C)nn4-c4ccc(Cl)cc4)c(F)c3)c21` [AA-03, 1-(3-Tert-butyl-1-(4-chlorophenyl)-1H-pyrazol-5-yl)-3-(2-fluoro-4-(1-N-methyl-2-oxo-2,3-dihydro-1H-imidazo[4,5-b]pyridin-7-yloxy)phenyl)urea] displayed a GI50 of 121 nM. Moreover, the IC50 was 302 nM in assay [2] and 60 nM in assay [3].
